Source: PubChem BioAssay (NCI)
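Protocol summary: plate cells (96-well), add compound at 5 concentrations, incubate 48 h, interpolate endpoints linearly. Abbreviation: GI50, concentration required for 50% inhibition of growth. At the TGI there is no net growth.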

Key:
Test in all cases: NCI anticancer screen, dose series, 48 h
[1] = tested on: CAKI-1 renal
[2] = tested on: SN12C renal
[3] = tested on: IGROV1 ovarian
[4] = tested on: U251 CNS
[5] = tested on: A549 NSCLC
[6] = tested on: TK-10 renal
[7] = tested on: SK-OV-3 ovarian
[8] = tested on: MCF7 breast

Structure (SMILES) | TGI [1] | TGI [2] | TGI [3] | TGI [4] | TGI [5] | TGI [6] | TGI [7] | TGI [8] | GI50 [1] | GI50 [2] | GI50 [3] | GI50 [4] | GI50 [5] | GI50 [6] | GI50 [7]
CC[C@H](NC(=O)OC(C)(C)C)C(=O)NCP(=O)(OCc1ccc([N+](=O)[O-])cc1)OCc1ccc([N+](=O)[O-])cc1 | > 100 µM | > 100 µM | > 100 µM | 97.1 µM | > 100 µM | > 100 µM | 86 µM | > 100 µM | – | – | – | – | – | – | –
Cc1nc2c(=O)n(-c3ccccc3)c(=O)n(-c3ccccc3)c2o1 | > 100 µM | > 100 µM | > 100 µM | > 100 µM | > 100 µM | > 100 µM | > 100 µM | > 100 µM | – | – | – | – | – | – | –
O=c1c2ccc(Cl)cc2oc2c(CNc3ccc(S(=O)(=O)Nc4ncccn4)cc3)cccc12 | > 100 µM | > 100 µM | > 100 µM | > 100 µM | > 100 µM | > 100 µM | > 100 µM | > 100 µM | – | – | – | – | – | – | –
COc1ccc(-c2cc3cc(Cl)cc(Cl)c3oc2=O)cc1OC | > 100 µM | > 100 µM | > 100 µM | > 100 µM | > 100 µM | > 100 µM | > 100 µM | > 100 µM | – | – | – | – | – | – | –
CCN(CC)C(=S)N/N=C(/c1ccccc1)c1ccccn1 | 11 µM | 1.35 µM | 6.72 µM | 18.8 µM | > 39.7 µM | 29 µM | 38.6 µM | > 54 µM | – | – | – | – | – | – | –
CN(C)CCNCCCNc1c2ccccc2nc2cccc([N+](=O)[O-])c12 | 0.331 µM | 0.279 µM | 0.173 µM | 0.0801 µM | 0.0999 µM | 0.176 µM | 0.26 µM | < 0.0268 µM | – | – | – | – | – | – | –
CN(C)/N=N/c1nc2c(c(=O)n(C)c(=O)n2C)n1CC1CO1 (configuration not stated) | 38.9 µM | 46.7 µM | 29.9 µM | 35.2 µM | 69.4 µM | 37.7 µM | 61.7 µM | 26.1 µM | – | – | – | – | – | – | –
N#Cc1c(-c2ccc([N+](=O)[O-])cc2)c(C#N)c(=O)n(NS(=O)(=O)c2ccccc2)c1O | > 100 µM | > 100 µM | > 100 µM | > 100 µM | > 100 µM | > 100 µM | > 100 µM | > 100 µM | – | – | – | – | – | – | –
O=C([C@H](O)[C@@H](O)c1cccc(Cl)c1)C12CC3CC(CC(C3)C1)C2 | 3.98 µM | 3.95 µM | 2.68 µM | 2.98 µM | 5.25 µM | 3.69 µM | 22.8 µM | 2.77 µM | – | – | – | – | – | – | –
CC(C)=C/C(CC(O)(C(F)(F)F)C(F)(F)F)=N\O | – | > 100 µM | > 100 µM | > 100 µM | > 100 µM | > 100 µM | > 100 µM | > 100 µM | – | – | – | – | – | – | –
CCn1ncc2c(=O)n3ncn(-c4ccc(Br)cc4)c3nc21 | – | > 100 µM | > 100 µM | > 100 µM | > 100 µM | > 100 µM | > 100 µM | > 100 µM | – | – | – | – | – | – | –
C=C(C)[C@H]1CC23C(=O)[C@@](C)(C[C@H]2C1(C)C)C(=O)C(C(=O)C(C)C)=C3O | 55.3 µM | 32.9 µM | 32.7 µM | 39.7 µM | 57.9 µM | 53.3 µM | – | 32.6 µM | – | – | – | – | – | – | –
O=C1c2cc3c(cc2-c2c1c1ccc(Cl)cc1c(=O)n2CCCn1ccnc1)OCO3 | > 100 µM | > 100 µM | > 100 µM | 11.3 µM | > 100 µM | > 100 µM | 26.6 µM | – | < 0.01 µM | < 0.01 µM | 0.0656 µM | < 0.01 µM | 0.0136 µM | 0.54 µM | < 0.01 µM
O=C1CSC(c2c[nH]c3ccccc23)N1c1ccc(Cl)cc1Cl (configuration not stated) | – | > 100 µM | > 100 µM | > 100 µM | > 100 µM | > 100 µM | > 100 µM | > 100 µM | – | – | – | – | – | – | –
CC(=O)Oc1ccn2nc(C)c(Br)c2c1 | – | > 100 µM | > 100 µM | > 100 µM | > 100 µM | > 100 µM | – | > 100 µM | – | – | – | – | – | – | –
C=C1[C@@H]2CCC3[C@]4(C)C(CC[C@@]5(C)C(=O)O[C@H](O)[C@@H]45)[C@H](O)[C@]3(C2)[C@H]1OC1OC(CO)C(O)C(O)C1O (some centres not stated) | – | > 50 µM | > 50 µM | > 50 µM | > 50 µM | > 50 µM | > 50 µM | > 50 µM | – | – | – | – | – | – | –
CC(C)(C)/C(O)=C\c1nc2cc(F)c(F)cc2[nH]c1=O | > 100 µM | – | > 100 µM | > 100 µM | – | > 100 µM | > 100 µM | > 100 µM | – | – | – | – | – | – | –
O=C(c1ccco1)N(C(=O)N1CCC(c2ccccc2)CC1)c1ccccc1 | > 100 µM | > 100 µM | > 100 µM | > 100 µM | – | > 100 µM | > 100 µM | > 100 µM | – | – | – | – | – | – | –
C=C1C[C@@H]2O[C@H]3[C@H]4[C@@H](C[C@@H](C)[C@@H](OC(C)=O)[C@H]42)[C@@H](C)CO[C@@]3(C)[C@H](OC(=O)CCCCCCC)CC1=O | 33.5 µM | 30.2 µM | 48.4 µM | 32.5 µM | 35.2 µM | 32.7 µM | – | 35.9 µM | – | – | – | – | – | – | –
CCOC(=O)C(NC(=O)c1cccc(Cl)c1)(Nc1cccc(C)c1)C(F)(F)F (configuration not stated) | 47.5 µM | 50.8 µM | 34.8 µM | 79.3 µM | > 100 µM | > 100 µM | – | 39 µM | – | – | – | – | – | – | –
CC(=O)Oc1ccc2c(-c3ccccc3)c(Oc3ccc(Cl)cc3)c(=O)oc2c1 | 32.3 µM | 39.2 µM | 29.4 µM | 16.3 µM | 27.6 µM | 26.3 µM | – | 39.8 µM | – | – | – | – | – | – | –
CCOC(=O)c1c(SCc2cc(=O)[nH]c(=O)[nH]2)n(-c2ccccc2)c(=S)n(-c2ccccc2)c1=O | > 100 µM | > 100 µM | > 100 µM | > 100 µM | > 100 µM | > 100 µM | – | > 100 µM | – | – | – | – | – | – | –
N#C/C(C(=O)NCc1ccccc1)=C(/N)N1CCCC1 | > 100 µM | > 100 µM | > 100 µM | > 100 µM | > 100 µM | > 100 µM | > 100 µM | – | – | – | – | – | – | – | –
COc1ccc(C2C=C(c3ccc(C)cc3)N(c3ccc(OC)cc3[N+](=O)[O-])C3C(=O)OC(=O)C23)c(OC)c1 (configuration not stated) | > 100 µM | – | 58.1 µM | > 100 µM | > 100 µM | > 100 µM | > 100 µM | > 100 µM | – | – | – | – | – | – | –
